This series is described as follows: Pharmacokinetic parameters after oral gavage in Sprague Dawley rats. The format is in vivo, male Sprague Dawley rats. The settings on record: rat, 10 mg/kg. The protocol:
The in vivo pharmacokinetic parameters of mesoporous silica (AMS-6) loaded with probucol (34.8 wt %) prepared according to the procedure as described in Example 1, were obtained after oral gavage to male Sprague Dawley rats at a dose of 10 mg/kg. Crystalline probucol (PB) was administered in comparison. […] Further, the maximum concentration of probucol after administration of silica loaded with probucol is approximately 10 times higher than when crystalline probucol is administered.

A word on the AUC(0-inf): it is total exposure, with the tail of the curve extrapolated. The Cmax is the maximum level reached in the sampled fluid or tissue. A word on the Tmax: it is the time at which the peak concentration occurs. For orientation: half-life means the time needed for the level to fall by half in the phase considered. Read a high half-life as slow loss. Regarding `CC(C)(Sc1cc(C(C)(C)C)c(O)c(C(C)(C)C)c1)Sc1cc(C(C)(C)C)c(O)c(C(C)(C)C)c1` [PB, Probucol], the Tlast is listed as 24 h. Under “male, Sprague Dawley, plasma”, the area under the curve AUC(0-inf) came out at 859 ng·h/mL, the peak level (Cmax) was 30.9 ng/mL, the Tmax was found to be 8 h and the half-life is 19.6 h. Moreover, the AUC(0-t) (male, Sprague Dawley, plasma, read-out: AUC0-24) amounted to 492 ng·h/mL.

Values taken from US20220096398A1, “COMPLEXES AND COMPOSITIONS COMPRISING PROBUCOL AND USES THEREOF” (MACQUARIE UNIVERSITY, priority 2019, published 2022).
